Data as given in patent US12428427B2, “Methods and compositions for targeting PD-L1” (Aligos Therapeutics, Inc., priority 2021, dated 2025).

Assays:
PDL1/PD1 = PDL1/PD1 (Homo sapiens, UniProt Q9NZQ7); test: PDL1/PD1 Binding Assay; conditions: PDL1-6×His 0.3 nM, PD1-Fc-Avi-Biotin 2.5 nM, Acceptor/Donor beads; read-out: PD-1/PD-L1 PPI IC50
Description: Compounds to be tested were serially diluted in DMSO, and further diluted in assay buffer (25 mM Hepes pH 7.4, 150 mM NaCl, 0.005% Tween 20, BSA 0.01%). Diluted compounds were added to the wells with final concentration of DMSO at 1%. PDL1-6×His protein was added to the wells, mixed well with compound. The plates were incubated for 30 min at room temperature. PD1-Fc-Avi-Biotin protein was added to the wells. Final concentration of PDL1 and PD1 protein is 0.3 nM and 2.5 nM, respectively. After a binding time of 30 min at room temperature, Anti-6×His Acceptor beads (final concentration 20 ug/ml) were added to the wells, and the incubation continued for 1 h. Streptavidin Donor beads (final concentration 20 ug/mL) were added at reduced light. The plates were sealed with foil and incubated in the dark for additional 1 h or overnight before reading on an Envision reader. The IC50 values were determined by fitting the curves using a four-parameter equation in Graphpad Prism 8.

PD-1/PD-L1 interaction = target: T1, PD-1/PD-L1 interaction (Homo sapiens, UniProt Q9NZQ7); test: PD-1/PD-L1 NFAT Reporter Assay; format: cell-based; conditions: co-culture of PD-L1 expressing CHO cells and PD-1 overexpressing Jurkat cells, 6 hrs, NFAT luciferase
T1 construct: expressed in transfected cells; Jurkat cells (PD-1 plus NFAT-luciferase)
T1 sequence (Q9NZQ7 19-290): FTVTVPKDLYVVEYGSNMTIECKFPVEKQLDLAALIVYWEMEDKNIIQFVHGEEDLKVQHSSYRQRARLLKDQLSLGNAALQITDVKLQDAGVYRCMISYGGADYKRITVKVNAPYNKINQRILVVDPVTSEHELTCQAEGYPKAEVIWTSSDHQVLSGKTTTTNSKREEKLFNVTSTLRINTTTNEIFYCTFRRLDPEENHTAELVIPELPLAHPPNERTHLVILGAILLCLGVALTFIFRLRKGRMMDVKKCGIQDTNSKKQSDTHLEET
Description: Blocking the PD-1/PD-L1 interaction will release the inhibitory signal and results in TCR signaling and NFAT-mediated luciferase activity.
CHO cells expressing surface-bound anti-CD3 antibodies and PD-L1 were first seeded overnight and treated with the compounds. Jurkat cells overexpressing PD-1 and a luciferase construct under NFAT promoter were then immediately seeded on the monolayer of CHO cells. The co-culture was then incubated for 6 hrs at 37° C. Luciferase activity was assessed by adding the ONE-Glo reagent and measuring luminescence with a plate reader. EC50 values were determined from the fit of the dose-response curves.

Chain of PDL1/PD1 (Q9NZQ7 19-238 limits assumed): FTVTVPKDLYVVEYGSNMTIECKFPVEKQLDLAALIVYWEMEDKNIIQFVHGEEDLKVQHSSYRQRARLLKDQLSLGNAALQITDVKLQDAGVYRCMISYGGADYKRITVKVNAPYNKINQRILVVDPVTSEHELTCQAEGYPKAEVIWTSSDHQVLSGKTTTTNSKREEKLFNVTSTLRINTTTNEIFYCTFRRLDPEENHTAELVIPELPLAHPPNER

Row | Compound | IC50 (PDL1/PD1) | EC50 (PD-1/PD-L1 interaction)
1 | COc1nc(-c2cccc(-c3cccc(NC(=O)c4ccnn(C)c4=O)c3Cl)c2Cl)ccc1CN1CCN(C(=O)OC(C)(C)C)[C@H](C(=O)O)C1 [Compound C-23] | ≤ 10 nM | > 5000 nM
2 | COc1nc(-c2cccc(-c3cccc(NC(=O)c4ccnn(C)c4=O)c3Cl)c2Cl)ccc1CN1CCN(C(=O)OC(C)(C)C)[C@@H](C(=O)O)C1 [Compound C-24] | ≤ 10 nM | 100 to 1000 nM
3 | COc1nc(-c2cccc(-c3cccc(NC(=O)c4ccnn(C)c4=O)c3Cl)c2Cl)ccc1CNCCCC(=O)O [Compound C-25] | ≤ 10 nM | 10 to 100 nM
4 | COc1nc(-c2cccc(-c3cccc(NC(=O)c4ccnn(C)c4=O)c3Cl)c2Cl)ccc1CN1CC2(C(=O)O)CCC1CC2 [Compound C-27] | ≤ 10 nM | 100 to 1000 nM
5 | COc1nc(-c2cccc(-c3cccc(NC(=O)c4ccnn(C)c4=O)c3Cl)c2Cl)ccc1CN[C@H](C(=O)O)C(C)C [Compound C-28] | ≤ 10 nM | 100 to 1000 nM
6 | COc1nc(-c2cccc(-c3cccc(NC(=O)c4ccnn(C)c4=O)c3Cl)c2Cl)ccc1CN[C@@H](C)C(=O)O [Compound C-29] | ≤ 10 nM | 10 to 100 nM
7 | COc1nc(-c2cccc(-c3cccc(NC(=O)c4ccnn(C)c4=O)c3Cl)c2Cl)ccc1CN1CCO[C@@H](C(=O)O)C1 [Compound C-30] | ≤ 10 nM | 100 to 1000 nM
8 | COc1nc(-c2cccc(-c3cccc(NC(=O)c4ccnn(C)c4=O)c3Cl)c2Cl)ccc1CN1C[C@H](C(=O)O)C(C)(C)C1 [Compound C-31] | ≤ 10 nM | 10 to 100 nM
9 | COc1nc(-c2cccc(-c3cccc(NC(=O)c4ccnn(C)c4=O)c3Cl)c2Cl)ccc1CN1CCC[C@@H]1CC(=O)O [Compound C-33] | ≤ 10 nM | 10 to 100 nM
10 | COc1nc(-c2cccc(-c3cccc(NC(=O)c4ccnn(C)c4=O)c3Cl)c2Cl)ccc1CN1CCC[C@H]1CC(=O)O [Compound C-34] | ≤ 10 nM | 10 to 100 nM
11 | COc1nc(-c2cccc(-c3cccc(NC(=O)c4ccnn(C)c4=O)c3Cl)c2Cl)ccc1CNCC(C)(C)C(=O)O [Compound C-35] | ≤ 10 nM | 10 to 100 nM
12 | COc1nc(-c2cccc(-c3cccc(NC(=O)c4ccnn(C)c4=O)c3Cl)c2Cl)ccc1CNC[C@H](C)C(=O)O [Compound C-36] | ≤ 10 nM | 10 to 100 nM
13 | COc1nc(-c2cccc(-c3cccc(NC(=O)c4ccnn(C)c4=O)c3Cl)c2Cl)ccc1CNC[C@@H](C)C(=O)O [Compound C-37] | ≤ 10 nM | 10 to 100 nM
14 | COc1nc(-c2cccc(-c3cccc(NC(=O)c4ccnn(C)c4=O)c3Cl)c2Cl)ccc1CNC[C@H](O)C(=O)O [Compound C-38] | ≤ 10 nM | 10 to 100 nM
15 | COc1nc(-c2cccc(-c3cccc(NC(=O)c4ccnn(C)c4=O)c3Cl)c2Cl)ccc1CNC1CCC[C@@H]1C(=O)O (stereo partly shown) [Compound C-39] | ≤ 10 nM | 10 to 100 nM
16 | COc1nc(-c2cccc(-c3cccc(NC(=O)c4ccnn(C)c4=O)c3Cl)c2Cl)ccc1CN[C@H]1CCC[C@H]1C(=O)O [Compound C-40] | ≤ 10 nM | 100 to 1000 nM

Row | Compound | IC50 (PDL1/PD1) | EC50 (PD-1/PD-L1 interaction)
17 | COc1nc(-c2cccc(-c3cccc(NC(=O)c4ccnn(C)c4=O)c3Cl)c2Cl)ccc1CN1CC(O)(C(=O)O)C1 [Compound C-41] | ≤ 10 nM | 10 to 100 nM
18 | COc1nc(-c2cccc(-c3cccc(NC(=O)c4ccnn(C)c4=O)c3Cl)c2Cl)ccc1CN1CC(CC(=O)O)C1 [Compound C-42] | ≤ 10 nM | 10 to 100 nM
19 | COc1nc(-c2cccc(-c3cccc(NC(=O)c4ccnn(C)c4=O)c3Cl)c2Cl)ccc1CN1CCO[C@H](C(=O)O)C1 [Compound C-44] | ≤ 10 nM | 10 to 100 nM
20 | COc1nc(-c2cccc(-c3cccc(NC(=O)c4ccnn(C)c4=O)c3Cl)c2Cl)ccc1CN[C@@H](CO)C(=O)O [Compound C-47] | ≤ 10 nM | 10 to 100 nM
21 | COc1nc(-c2cccc(-c3cccc(NC(=O)c4ccnn(C)c4=O)c3Cl)c2Cl)ccc1CN1C[C@@H](C(=O)O)C(C)(C)C1 [Compound C-48] | ≤ 10 nM | 100 to 1000 nM
22 | COc1nc(-c2cccc(-c3cccc(NC(=O)c4ccnn(C)c4=O)c3Cl)c2Cl)ccc1CN[C@@H]1CN(C(C)=O)C[C@H]1O [Compound C-49] | ≤ 10 nM | 10 to 100 nM
23 | COc1nc(-c2cccc(-c3cccc(NC(=O)c4ccnn(C)c4=O)c3Cl)c2Cl)ccc1CN1CC[C@H](O)C1 [Compound C-50] | ≤ 10 nM | ≤ 10 nM
24 | CCOC(=O)C1CN(Cc2ccc(-c3cccc(-c4cccc(NC(=O)c5ccnn(C)c5=O)c4C)c3Cl)nc2OC)C1 [Compound C-53] | ≤ 10 nM | 10 to 100 nM
25 | COc1nc(-c2cccc(-c3cccc(NC(=O)c4ccnn(C)c4=O)c3C)c2Cl)ccc1CN1CC(C(=O)O)C1 [Compound C-54] | ≤ 10 nM | 10 to 100 nM
26 | CCOC(=O)[C@H]1CCN(Cc2ccc(-c3cccc(-c4cccc(NC(=O)c5ccnn(C)c5=O)c4C)c3Cl)nc2OC)C1 [Compound C-55] | ≤ 10 nM | 10 to 100 nM
27 | COc1nc(-c2cccc(-c3cccc(NC(=O)c4ccnn(C)c4=O)c3C)c2Cl)ccc1CN1CC[C@H](C(=O)O)C1 [Compound C-56] | ≤ 10 nM | 10 to 100 nM
28 | CCOC(=O)[C@@H]1CCN(Cc2ccc(-c3cccc(-c4cccc(NC(=O)c5ccnn(C)c5=O)c4C)c3Cl)nc2OC)C1 [Compound C-57] | ≤ 10 nM | 10 to 100 nM
29 | COc1nc(-c2cccc(-c3cccc(NC(=O)c4ccnn(C)c4=O)c3C)c2Cl)ccc1CN1CC[C@@H](C(=O)O)C1 [Compound C-58] | ≤ 10 nM | 10 to 100 nM
30 | COc1nc(-c2cccc(-c3cccc(NC(=O)c4ccnn(C)c4=O)c3C)c2Cl)ccc1CN1CC(C)(C(=O)O)C1 [Compound C-60] | ≤ 10 nM | 10 to 100 nM
31 | COC(=O)C1(F)CN(Cc2ccc(-c3cccc(-c4cccc(NC(=O)c5ccnn(C)c5=O)c4C)c3Cl)nc2OC)C1 [Compound C-61] | ≤ 10 nM | 10 to 100 nM
32 | COc1nc(-c2cccc(-c3cccc(NC(=O)c4ccnn(C)c4=O)c3C)c2Cl)ccc1CN1CC(NC(C)=O)C1 [Compound C-63] | ≤ 10 nM | 10 to 100 nM

The remaining lines, values ahead:

Row | IC50 (PDL1/PD1) | EC50 (PD-1/PD-L1 interaction) | Compound
33 | ≤ 10 nM | 10 to 100 nM | COc1nc(-c2cccc(-c3cccc(NC(=O)c4ccnn(C)c4=O)c3C)c2Cl)ccc1CN1CC2(C1)CN(C(C)=O)C2 [Compound C-64]
34 | ≤ 10 nM | ≤ 10 nM | COc1nc(-c2cccc(-c3cccc(NC(=O)c4ccnn(C)c4=O)c3C)c2Cl)ccc1CN1CC[C@H](O)C1 [Compound C-65]
35 | ≤ 10 nM | 10 to 100 nM | COc1nc(-c2cccc(-c3cccc(NC(=O)c4ccnn(C)c4=O)c3C)c2Cl)ccc1CN1CC(O)C1 [Compound C-66]
36 | ≤ 10 nM | ≤ 10 nM | COc1nc(-c2cccc(-c3cccc(NC(=O)c4ccnn(C)c4=O)c3C)c2Cl)ccc1CN1CC[C@@H](O)C1 [Compound C-67]
37 | ≤ 10 nM | 10 to 100 nM | COc1nc(-c2cccc(-c3cccc(NC(=O)c4ccnn(C)c4=O)c3C)c2C)ccc1CN[C@@H]1CCOC[C@H]1O [Compound C-70]
38 | ≤ 10 nM | > 5000 nM | COc1nc(-c2cccc(-c3cccc(NC(=O)c4ccnn(C)c4=O)c3C)c2C)ccc1CNC(C)(C)CO [Compound C-73]
39 | ≤ 10 nM | ≤ 10 nM | COc1nc(-c2cccc(-c3cccc(NC(=O)c4ccnn(C)c4=O)c3Cl)c2Cl)c(F)cc1CN[C@@H]1CCOC[C@@H]1O [Compound C-75]
40 | ≤ 10 nM | 10 to 100 nM | COc1nc(-c2cccc(-c3cccc(NC(=O)c4ccnn(C)c4=O)c3Cl)c2Cl)c(F)cc1CN1CC(C(=O)O)C1 [Compound C-76]
41 | ≤ 10 nM | 10 to 100 nM | CCOC(=O)C1CN(Cc2cc(F)c(-c3cccc(-c4cccc(NC(=O)c5ccnn(C)c5=O)c4Cl)c3Cl)nc2OC)C1 [Compound C-77]
42 | ≤ 10 nM | 100 to 1000 nM | COC(=O)C1CN(Cc2cc(F)c(-c3cccc(-c4cccc(NC(=O)c5ccnn(C)c5=O)c4Cl)c3Cl)nc2OC)C1 [Compound C-78]
43 | ≤ 10 nM | 10 to 100 nM | CCOC(=O)C1CN(Cc2cnc(-c3cccc(-c4cccc(NC(=O)c5ccnn(C)c5=O)c4Cl)c3Cl)nc2OC)C1 [Compound C-79]
44 | ≤ 10 nM | 10 to 100 nM | COc1nc(-c2cccc(-c3cccc(NC(=O)c4ccnn(C)c4=O)c3Cl)c2Cl)ncc1CN1CC(C(=O)O)C1 [Compound C-80]
45 | ≤ 10 nM | ≤ 10 nM | COc1nc(-c2cccc(-c3cccc(NC(=O)c4ccnn(C)c4=O)c3Cl)c2Cl)ncc1CN[C@@H]1CCOC[C@@H]1O [Compound C-81]
46 | ≤ 10 nM | 10 to 100 nM | COc1nc(-c2cccc(-c3cccc(NC(=O)c4ccnn(C)c4=O)c3Cl)c2Cl)ncc1CN1CC(O)C1 [Compound C-82]
47 | ≤ 10 nM | ≤ 10 nM | COc1nc(-c2cccc(-c3cccc(NC(=O)c4ccnn(C)c4=O)c3C)c2Cl)cnc1CN1CC[C@H](O)C1 [Compound C-87]
